The target in one assay is HPK1 (Homo sapiens, UniProt Q92918). Nature of the assay: HPK1 biochemical assay (ADP-GLO Kinase Assay). From the text:
IC50 values of any compounds can be determined accordingly over a range of inhibitor concentrations. In addition, the inhibitory effect of the compounds can also be assess using a biological assay, to determine the effect of the compounds on cytokine secretion by T cells following TCR and CD28 stimulation.
Biology Example 1 HPK1 Biochemical Assay
This example used the ADP-GLO™ Kinase Assay to measure the effect of potential HPK1 inhibitor compounds on HPK1 kinase activity.
The ADP-GLO™ Kinase Assay (Promega Corp., Madison, WI) measures ADP formed from a kinase reaction. According to the manufacture, the ADP formed in a kinase assay is first converted into ATP, which is then used to generate light in a luciferase reaction. The luminescence generated correlates with kinase activity. An exemplary experimental setting is described below, though minor adjustments can be made in individual assays.
Serial 3-fold dilution of compounds from 10 μM (top concentration) to 0.508 nM (lowest concentration). Positive control is 10 μM Reference+enzyme+substrate. Negative control is 1% DMSO+enzyme+substrate.
• 1. Buffer Preparation • 40 mM Tris pH7.5; 20 mM MgCl2, 0.1 mg/ml BSA, 50 μM DTT Buffer Stock
Add 20 mL 1M Tris and 10 mL 1M MgCl2 to 470 mL ddH2O to get buffer stock, and stock at RT. • 2. Preparing Fresh 1* Assay Buffer
• 3. Compounds Preparation • 1) The compounds were diluted to 1 mM, by mixing 10 μL of 10 mM respective compound stocks with 90 μL of DMSO. • 2) The compounds were then diluted 3-fold for 10 doses (5 μL to 10 μL dilution) by BRAVO. The top compound conc. was 1 mM (100×), DMSO Conc. was 100%. • 3) Transfer 100 nL of each diluted compound sample to 384-well plate (Corning-4512) by ECHO. • 4) Centrifuge the plate at 1,500 rpm for 1 minute. • 4. Preparation of 2×ATP-MBP Mixture: • 20 μM ATP, 0.2 μg/μL MBP in Kinase Buffer (final concentration: 10 μM ATP, 0.1 MBP)
• 5. Preparation of 2×HPK1 working solution with assay buffer. • HPK1 final concentration was 0.6 ng/μL. […] Incubate at 25° C. for 40 min. • 11. Record luminescence signal on an Envision plate reader (384-CTG). 5. Data Analysis
The percent (%) inhibition at each concentration of compound is calculated based on and relative to the signal in the High and Low control wells contained within each assay plate. […] The concentrations and % inhibition values for tested compounds were plotted and the concentration of compound required for 50% inhibition (IC50) was determined with a Three-parameter logistic dose response equation. The endpoint value (IC50) for the reference peptide/compound was evaluated in each experiment as a quality control measure. If the endpoint value was within 3-fold of the expected value, then the experiment was deemed acceptable.
(In ADP-Glo the light output rises with the ADP produced.)

In the next assay the target is T1, JAK3 (Homo sapiens, UniProt P52333).
T1 construct: purchased Thermo fisher PV3855
T1 sequence (P52333 781-1124 limits assumed): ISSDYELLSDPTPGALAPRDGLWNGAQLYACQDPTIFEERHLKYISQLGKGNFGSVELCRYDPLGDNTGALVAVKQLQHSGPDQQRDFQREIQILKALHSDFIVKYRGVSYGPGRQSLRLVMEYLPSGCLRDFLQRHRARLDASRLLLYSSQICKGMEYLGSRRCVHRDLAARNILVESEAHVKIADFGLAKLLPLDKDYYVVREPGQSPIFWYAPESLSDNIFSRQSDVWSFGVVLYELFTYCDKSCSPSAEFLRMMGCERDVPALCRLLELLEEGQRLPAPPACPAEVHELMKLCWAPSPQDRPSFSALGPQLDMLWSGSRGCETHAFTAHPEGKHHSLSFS
The assay can be described thus: JAK3 biochemical assay (ADP-GLO Kinase Assay). The following applies: for JAKs/HPK1 IC50 Ratio, B*: first testing facility. As for the experimental part:
Biology Example 4 JAK3 Biochemical Assay
This example used the ADP-GLO™ Kinase Assay to measure the effect of potential HPK1 inhibitor compounds on JAK3 kinase activity. An exemplary experimental setting is described below, though minor adjustments can be made in individual assays.
3. Procedures • 1. Prepare JAK3 kinase buffer • Freshly adding DTT and BSA into Buffer (Final Conc.: 40 mM Tris pH7.5; 20 mM MgCl2, 0.1 mg/ml BSA, 50 μM DTT).
• 2. Compounds Preparation • For tested compounds: compounds were diluted to 1 mM, by mixing 5 μL of 10 mM compound stocks to 45 μL DMSO. The compounds solutions were then serially diluted 3-fold for 10 doses. The top compound concentration was 1 mM (100×), DMSO concentration was 100%. • 50 nL of each of 10 doses of diluted compound were added to 384-well assay plate (Corning #4512) by ECHO. • For positive control, 50 nL of 1 mM reference compound were added to 384-well assay plate (Corning #4512) by ECHO. • For negative control: 50 nL of DMSO was transferred into 384-well assay plate as a negative control. • The assay plate was centrifuged at 1,500 rpm for 1 minute. • 3. Compounds were Transferred by ECHO Following the Layout Below: • Reference and test compounds 1-15: serial 3-fold dilution from 10 μM to 0.508 nM (10 doses); negative control is 0.78 ng JAK3, 4 μM ATP & 0.2 μg/μL poly, 1% DMSO; positive control is the top dose of the reference compound, 0.78 ng JAK3, 0.2 μg/μL Poly(E4Y1), 4 μMATP, 1% DMSO. • 4. Add 2.5 μL/well of 2×JAK3 working solution using pipette (Thermo, 30 μL multi-channel), Centrifuge at 1,500 rpm for 1 minute. • 5. Add 2.5 μL/well of 2×ATP-Poly(E4Y1) working mixture using pipette (Thermo, 30 μL multi-channel), Centrifuge at 1,500 rpm for 1 minute. • 6. Incubate the assay plate at 25° C. for 60 min. • 7. Add 5 μL/well ADP-GLO™ Reagent by BRAVO to stop the kinase reaction and deplete the unconsumed ATP after 1 hour. Centrifuge at 1,500 rpm for 1 minute. Incubate at 25° C. for 40 min. • 8. Add 10 uL of Kinase Detection Reagent by BRAVO to convert ADP to ATP. Centrifuge at 1,500 rpm for 1 minute. Incubate at 25° C. for 40 min. • 9. Record luminescence signal on an Envision plate reader (384-USL). • 10. Process data using XL-fit. Inhibition %=[1-(test well−Negative control)/(positive control−Negative control)]*100%. 5. Data Analysis
The percent (%) inhibition at each concentration of compound is calculated based on and relative to the signal in the Negative and Positive control wells contained within each assay plate. The Negative control wells served as 0% inhibition, and the Positive control wells served as 100% inhibition. The concentrations and % inhibition values for tested compounds are plotted and the concentration of compound required for 50% inhibition (IC50) is determined with a Three-parameter logistic dose response equation. The endpoint value (IC50) for the reference peptide/compound is evaluated in each experiment as a quality control measure. If the endpoint value was within 3-fold of the expected value then the experiment was deemed acceptable.

Setting [1] is: B*: testing performed in a first testing facility, read-out: HPK1 IC50 (nM) Relative, B*.
The mark [2] stands for this setting: B*: testing performed in a first testing facility, read-out: JAK3 IC50 (nM) Relative, B*.
The mark [3] stands for this setting: ratio of JAK3 IC50 to HPK1 IC50.

Read-outs that look alike come from different tables or passages of the source.

HPK1, sequence (Q92918 whole entry): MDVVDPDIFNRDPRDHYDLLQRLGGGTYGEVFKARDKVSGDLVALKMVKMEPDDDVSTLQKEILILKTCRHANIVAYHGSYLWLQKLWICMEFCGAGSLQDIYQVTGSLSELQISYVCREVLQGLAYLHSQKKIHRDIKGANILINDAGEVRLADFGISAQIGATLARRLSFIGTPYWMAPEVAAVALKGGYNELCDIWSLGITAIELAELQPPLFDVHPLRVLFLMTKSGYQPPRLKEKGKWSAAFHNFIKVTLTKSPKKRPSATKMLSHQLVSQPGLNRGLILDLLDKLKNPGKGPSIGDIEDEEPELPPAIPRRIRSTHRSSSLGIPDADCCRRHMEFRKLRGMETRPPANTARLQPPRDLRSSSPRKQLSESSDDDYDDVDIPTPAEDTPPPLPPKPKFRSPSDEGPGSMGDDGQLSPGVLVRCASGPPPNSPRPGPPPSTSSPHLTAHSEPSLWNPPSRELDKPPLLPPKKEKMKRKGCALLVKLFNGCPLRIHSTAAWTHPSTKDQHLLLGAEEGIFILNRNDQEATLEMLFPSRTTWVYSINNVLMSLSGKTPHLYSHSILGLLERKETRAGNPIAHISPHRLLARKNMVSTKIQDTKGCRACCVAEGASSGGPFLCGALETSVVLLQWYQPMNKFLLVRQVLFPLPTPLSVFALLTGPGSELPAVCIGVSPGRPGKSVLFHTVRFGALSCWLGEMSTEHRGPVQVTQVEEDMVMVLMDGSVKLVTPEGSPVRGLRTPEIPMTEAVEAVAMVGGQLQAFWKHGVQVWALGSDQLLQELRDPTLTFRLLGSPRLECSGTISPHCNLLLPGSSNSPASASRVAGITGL

One may read the IC50 as the concentration that inhibits the measured activity by half. As to `COc1cc2c(cc1Nc1ncc(Cl)c(-c3cncc4ccccc34)n1)CN(C)CC2` [Example 48, N-(5-chloro-4-(isoquinolin-4-yl)pyrimidin-2-yl)-6-methoxy-2-methyl-1,2,3,4-tetrahydroisoquinolin-7-amine], the results for the IC50 on HPK1 (setting [1]) and at JAK3 (setting [2]) were no more than 100 nM and greater than 1000 nM, respectively. Moreover, the “JAKs/HPK1 IC50 Ratio, B*” value on JAK3 (setting [3]) is greater than 179.
`COc1cc2c(cc1Nc1ncc(Cl)c(N3CC(C(=O)O)c4ccccc43)n1)CN(C)CC2` (single isomer, unassigned) [Example 95]: the IC50 at HPK1 (setting [1]) was no more than 100 nM; at JAK3 (setting [2]), greater than 1000 nM. Moreover, the “JAKs/HPK1 IC50 Ratio, B*” value on JAK3 (setting [3]) is on record as 150.
In the same order, the values of `CCc1c[nH]c2ncc(-c3ccc(NC4COC4)c(P(C)(C)=O)c3)cc12` [Example 76, (5-(3-Ethyl-1H-pyrrolo[2,3-b]pyridin-5-yl)-2-(oxetan-3-ylamino)phenyl)dimethylphosphine oxide] are 500 to 1000 nM, greater than 1000 nM and 4.
For the compound `COc1cc2c(cc1Nc1ncc(Cl)c(N3CCCc4ccccc43)n1)CN(C)CC2` [Example 6, N-(5-chloro-4-(3,4-dihydroquinolin-1(2H)-yl)pyrimidin-2-yl)-6-methoxy-2-methyl-1,2,3,4-tetrahydroisoquinolin-7-amine], the results for the IC50 on HPK1 (setting [1]) and on JAK3 (setting [2]) were no more than 100 nM and greater than 1000 nM, respectively.
Regarding `COc1cc2c(cc1Nc1ncc3ccn(-c4cccnc4C)c3n1)CN(C)CC2` [Example 41, 6-Methoxy-2-methyl-N-(7-(2-methylpyridin-3-yl)-7H-pyrrolo[2,3-d]pyrimidin-2-yl)-1,2,3,4-tetrahydroisoquinolin-7-amine], the 50% inhibitory concentration (IC50) at HPK1 (setting [1]) was no more than 100 nM; on JAK3 (setting [2]), 100 to 500 nM. On JAK3 (setting [3]), the “JAKs/HPK1 IC50 Ratio, B*” value was 30.
In the same order, the values of `COc1cc2c(cc1Nc1ncc3ccc(=O)n(-c4ccccc4)c3n1)CN(C)CC2` [Example 171, 2-((6-Methoxy-2-methyl-1,2,3,4-tetrahydroisoquinolin-7-yl)amino)-8-phenylpyrido[2,3-d]pyrimidin-7(8H)-one] are no more than 100 nM, greater than 1000 nM and 121.
For the compound `COc1cc2c(cc1Nc1ncc(Cl)c(N3CCC4(COC4)C3)n1)CN(C)CC2` [Example 170, N-(5-chloro-4-(2-oxa-6-azaspiro[3.4]octan-6-yl)pyrimidin-2-yl)-6-methoxy-2-methyl-1,2,3,4-tetrahydroisoquinolin-7-amine], the values for the IC50 at HPK1 (setting [1]) and at JAK3 (setting [2]) were 100 to 500 nM and greater than 1000 nM, respectively. Moreover, the “JAKs/HPK1 IC50 Ratio, B*” value at JAK3 (setting [3]) was determined as 77.
With `CCc1c[nH]c2ncc(-c3ccc(O)c(P(C)(C)=O)c3)cc12` [Example 55, (5-(3-Ethyl-1H-pyrrolo[2,3-b]pyridin-5-yl)-2-hydroxyphenyl)dimethylphosphine oxide], the IC50 is no more than 100 nM on HPK1 (setting [1]) and 100 to 500 nM at JAK3 (setting [2]). Besides, the “JAKs/HPK1 IC50 Ratio, B*” value on JAK3 (setting [3]) was 20.
Regarding `CCOC(=O)Cc1cn(-c2nc(Nc3cc4c(cc3OC)CCN(C)C4)ncc2Cl)c2ccccc12` [Example 132], the IC50 is no more than 100 nM on HPK1 (setting [1]) and greater than 1000 nM at JAK3 (setting [2]). Moreover, on JAK3 (setting [3]), the “JAKs/HPK1 IC50 Ratio, B*” value was greater than 426.
`COc1cc2c(cc1Nc1ncc3ncn(-c4ccccc4C(=O)N(C)C)c3n1)CN(C)CC2` [Example 44, 2-(2-((6-Methoxy-2-methyl-1,2,3,4-tetrahydroisoquinolin-7-yl)amino)-9H-purin-9-yl)-N,N-dimethylbenzamide]: the IC50 at HPK1 (setting [1]) is greater than 1000 nM; at HPK1 (N*: testing performed in a second testing facility, read-out: HPK1 IC50 (nM) Relative, N*) it was greater than 1000 nM; on JAK3 (N*: testing performed in a second testing facility, read-out: JAK3 IC50 (nM) Relative, N*), greater than 1000 nM. The “JAKs/HPK1 IC50 Ratio, N*” value at JAK3 (ratio of JAK3 IC50 to HPK1 IC50, second testing facility) was greater than 10.
Take `COc1cc2c(cc1Nc1ncc(Cl)c(N3CCc4cc(Br)ccc43)n1)CN(C)CC2` [Example 85, N-(4-(5-bromoindolin-1-yl)-5-chloropyrimidin-2-yl)-6-methoxy-2-methyl-1,2,3,4-tetrahydroisoquinolin-7-amine]: the IC50 on HPK1 (setting [1]) was no more than 100 nM; at JAK3 (setting [2]), greater than 1000 nM. Moreover, the “JAKs/HPK1 IC50 Ratio, B*” value at JAK3 (setting [3]) was found to be 178.
In the same order, the values of `CCc1c[nH]c2ncc(-c3ccc(C)c(P(C)(C)=O)c3F)cc12` [Example 62, (3-(3-Ethyl-1H-pyrrolo[2,3-b]pyridin-5-yl)-2-fluoro-6-methylphenyl)dimethylphosphine oxide] are no more than 100 nM, greater than 1000 nM and 54.
With `CC(C)Oc1cc2c(cc1Nc1ncc(Cl)c(N3CC(C(=O)O)c4ccccc43)n1)CN(C)CC2` (stereo not drawn) [Example 111, 1-(5-Chloro-2-((6-isopropoxy-2-methyl-1,2,3,4-tetrahydroisoquinolin-7-yl)amino)pyrimidin-4-yl)indoline-3-carboxylic acid], the half-maximal inhibitory concentration (IC50) at HPK1 (setting [1]) was no more than 100 nM; on JAK3 (setting [2]), greater than 1000 nM. Further, the “JAKs/HPK1 IC50 Ratio, B*” value on JAK3 (setting [3]) is reported as greater than 236.
With `CCc1c[nH]c2ncc(-c3ccc(CF)c(P(C)(C)=O)c3)cc12` [Example 74, (5-(3-Ethyl-1H-pyrrolo[2,3-b]pyridin-5-yl)-2-(fluoromethyl)phenyl)dimethylphosphine oxide], the IC50 is 100 to 500 nM on HPK1 (setting [1]) and greater than 1000 nM on JAK3 (setting [2]). Moreover, at JAK3 (setting [3]), the “JAKs/HPK1 IC50 Ratio, B*” value is on record as 19.
For the compound `COc1cc2c(cc1Nc1ncc(Cl)c(-n3cc(NS(C)(=O)=O)c4ccccc43)n1)CN(C)CC2` [Example 94, N-(1-(5-chloro-2-((6-methoxy-2-methyl-1,2,3,4-tetrahydroisoquinolin-7-yl)amino)pyrimidin-4-yl)-1H-indol-3-yl)methanesulfonamide], the values for the IC50 at HPK1 (setting [1]) and at JAK3 (setting [2]) were no more than 100 nM and greater than 1000 nM, respectively. Also, on JAK3 (setting [3]), the “JAKs/HPK1 IC50 Ratio, B*” value turned out to be 449.

The values above are taken from patent US12612424B2, “HPK1 inhibitors and uses thereof” (Regor Pharmaceuticals, Inc., priority 2019, dated 2026).
